Source: patent US20240270855A1, “NEURO-MESENCHYME UNITS CONTROL ILC2 AND OBESITY VIA A BRAIN-ADIPOSE CIRCUIT” (Fundação D. Anna de Sommer Champalimaud e Dr. Carlos Montez …, priority 2021, published 2024)

What was measured:
[1] = test system: dopaminergic and noradrenergic neurons; experiment: Chemical sympathetic ablation with 6-OHDA, GAT ILC2 cytokines by flow cytometry; format: in vivo, mice
[2] = test system: PDGFRA positive MSC; experiment: RNA sequencing of PDGFRA positive MSC from 6-OHDA-treated mice; format: in vivo; conditions: RNAseq, 6-OHDA vs vehicle
[3] = test system: GAT; experiment: Quantitative RT-PCR gene expression in GAT and GAT cell populations after 6-OHDA or clenbuterol; format: in vivo, mice; conditions: for expression of IL-33: GAT and PDGFRA+MSCs of treated mice; for Gdnf expression in other mesenchymal counterparts, adipocytes and endothelial cells: GAT cell populations; for expression of IL-25: PDGFRA+MSCs of treated mice; for Gdnf expression in PDGFRA+MSC: sorted GAT cell population; for Gdnf expression in the GAT: total GAT RNA
[4] = target: RET (Homo sapiens, UniProt P07949); conditions: Akeno-Stuart et al., Cancer Res. 2007; cited from earlier work
[5] = test system: DREADD-carrying neurons; experiment: Chemogenetic modulation of GAT neurons (AAV DREADD injected in GAT, then CNO); format: in vivo, mice; conditions: for interleukin-33 (Il33) expression: vs contralateral control
[6] = test system: RET; conditions: Tokugawa et al., Neurochem Int. 2003; cited from earlier work
[7] = target: T1, beta-2 adrenergic receptor (ADRB2) (Mus musculus, UniProt P18762); experiment: Systemic activation of ADRB2 with clenbuterol, GAT ILC2 cytokines; format: in vivo, mice; conditions: clenbuterol in drinking water, 10 mg/kg/day, 8 days
T1 construct: endogenous in cells; host or cells: C57BL/6J mice in vivo

[8] = test system: purified GAT PDGFRA+MSCs; experiment: In vitro MSC activation with clenbuterol, MSC-derived GDNF; format: cell-based, mice; conditions: 10 μg/ml clenbuterol, 16 hours
Description: In vitro and in vivo MSC activation: For in vitro experiments, purified GAT PDGFRA+MSCs were cultured in complete DMEM (supplemented with 10% FBS, 1% HEPES, sodium pyruvate, glutamine, streptomycin and penicillin (Corning)) at 37° C. After 2 hours of rest in complete DMEM without FBS, MSCs were stimulated for 16 hours with 10 μg/ml clenbuterol. For RNA analysis, MSCs were lysed using RLT buffer (Qiagen). For GDNF protein analysis, MSCs were incubated with brefeldin A (eBioscience) during clenbuterol stimulation prior to intracellular staining.

[9] = test system: GAT explant/ILC2 co-cultures; experiment: GAT explant/ILC2 co-culture with GDNF, Ucp1 expression; format: cell-based, mice; conditions: 50 ng/mL, 16 hours, Ret^WT vs Ret^Δ ILC2; RET dependent
Description: Quantitative RT-PCR: Total RNA from sorted or cultured cells was extracted using RNeasy micro kit or RNeasy mini kit (Qiagen) according to the manufacturer's protocol. When indicated, total adipose tissue or adipocyte fraction was collected to Trizol (Invitrogen) followed by chloroform and isopropanol RNA extraction, according to the manufacturer's protocol. RNA concentration was determined using Nanodrop Spectrophotometer (Nanodrop Technologies). Quantitative real-time PCR was performed in StepOne and QuantStudio 5 real-time PCR systems (Applied Biosystems) with Hprt and Gapdh as housekeeping genes. Briefly, High Capacity RNA-to-cDNA Kit (Applied Biosystems) were used to retro-transcribe RNA, followed by a pre-amplification PCR using TaqMan PreAmp Master Mix (Applied Biosystems). TaqMan Gene Expression Master Mix (Applied Biosystems) was used in the real-time PCR. TaqMan Gene Expression Assays (Applied Biosystems) were the following: Hprt Mm00446968_m1; Gapdh Mm99999915_g1; […] Mm00439646_m1; […] Mm00434204_m1; Areg Mm01354339_m1; Penk Mm01212875_m1; Ret Mm00436304_m1; Gdnf Mm00599849_m1; Ucp1 Mm01244861_m1; Adrb2 Mm02524224_s1; Il25 Mm00499822_m1; and Il33 Mm00505403_m1. Analysis was performed using the comparative CT method (2^−ΔCT). When comparison or fold change between samples was required, the comparative ΔCT method (2^−ΔΔCT) was applied. […]

[10] = GAT, 6-OHDA 200 mg/kg intraperitoneally 3 days and 1 day before analysis, vs vehicle
[11] = AAV(3D) (activator DREADD), vs sham contralateral control
[12] = AAV(4D) (inhibitor DREADD), vs sham contralateral control

RET (Homo sapiens, UniProt P07949), sequence (P07949 29-1114): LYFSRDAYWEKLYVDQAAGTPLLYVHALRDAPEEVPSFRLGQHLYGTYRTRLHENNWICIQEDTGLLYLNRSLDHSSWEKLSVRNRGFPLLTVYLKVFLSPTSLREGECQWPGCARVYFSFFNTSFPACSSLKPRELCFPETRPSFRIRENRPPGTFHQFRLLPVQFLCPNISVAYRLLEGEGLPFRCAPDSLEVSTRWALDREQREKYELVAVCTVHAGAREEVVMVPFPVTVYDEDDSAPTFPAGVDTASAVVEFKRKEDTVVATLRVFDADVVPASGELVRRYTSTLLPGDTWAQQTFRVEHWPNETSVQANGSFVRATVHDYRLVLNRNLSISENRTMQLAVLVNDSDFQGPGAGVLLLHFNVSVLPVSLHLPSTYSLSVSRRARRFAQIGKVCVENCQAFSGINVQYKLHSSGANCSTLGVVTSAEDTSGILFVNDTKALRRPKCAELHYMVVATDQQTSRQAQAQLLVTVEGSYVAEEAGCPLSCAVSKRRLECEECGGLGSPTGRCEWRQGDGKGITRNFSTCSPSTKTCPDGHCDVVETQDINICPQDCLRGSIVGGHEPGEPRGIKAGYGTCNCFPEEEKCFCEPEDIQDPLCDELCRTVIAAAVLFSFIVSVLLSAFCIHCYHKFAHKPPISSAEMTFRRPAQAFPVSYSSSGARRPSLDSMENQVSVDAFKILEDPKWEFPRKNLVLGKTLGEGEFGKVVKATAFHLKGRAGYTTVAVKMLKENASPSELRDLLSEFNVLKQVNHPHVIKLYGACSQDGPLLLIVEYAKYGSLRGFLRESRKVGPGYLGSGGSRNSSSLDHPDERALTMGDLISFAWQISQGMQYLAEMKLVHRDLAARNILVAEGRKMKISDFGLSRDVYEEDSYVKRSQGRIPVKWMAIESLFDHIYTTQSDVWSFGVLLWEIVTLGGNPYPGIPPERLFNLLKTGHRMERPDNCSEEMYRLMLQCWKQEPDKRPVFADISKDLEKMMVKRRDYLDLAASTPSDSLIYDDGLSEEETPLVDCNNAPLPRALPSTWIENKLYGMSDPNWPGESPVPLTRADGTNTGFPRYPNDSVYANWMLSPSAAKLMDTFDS
T1 sequence (P18762 whole entry): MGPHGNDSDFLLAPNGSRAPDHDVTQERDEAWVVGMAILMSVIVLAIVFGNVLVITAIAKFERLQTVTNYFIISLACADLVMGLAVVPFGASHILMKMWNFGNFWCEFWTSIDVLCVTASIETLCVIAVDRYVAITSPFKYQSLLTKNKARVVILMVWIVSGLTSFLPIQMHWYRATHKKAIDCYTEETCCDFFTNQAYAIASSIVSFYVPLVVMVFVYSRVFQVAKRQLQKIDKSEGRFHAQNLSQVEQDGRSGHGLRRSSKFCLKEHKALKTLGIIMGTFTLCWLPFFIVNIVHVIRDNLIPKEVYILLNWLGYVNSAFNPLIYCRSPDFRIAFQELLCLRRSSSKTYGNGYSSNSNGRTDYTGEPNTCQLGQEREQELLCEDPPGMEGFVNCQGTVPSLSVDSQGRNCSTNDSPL

## NCCc1cc(O)c(O)cc1O [6-OHDA, 6-hydroxydopamine]
[1]; Adrb2^ΔIl7ra mice
  ILC2 cytokine production: still impaired
[1]; [10]
  ILC2-derived IL-13: pronounced reduction
  ILC2-derived Met-Enk: pronounced reduction
  ILC2-derived interleukin (IL-) 5: pronounced reduction
[1]; Ret^ΔIl5 mice
  ILC2 cytokine production: unperturbed
[1]; after 6-OHDA administration
  percentage of CD4 T cells: no change
[2]
  GDNF expression by PDGFRA positive MSC: significantly reduced
[3]
  expression of IL-33: unperturbed
  Gdnf expression in other mesenchymal counterparts, adipocytes and endothelial cells: unperturbed
  expression of IL-25: unperturbed
  Gdnf expression in PDGFRA+MSC: modulated
  Gdnf expression in the GAT: modulated

## CCN1CCN(Cc2ccc(NC(=O)Nc3ccc(Oc4cc(NC)ncn4)cc3)cc2C(F)(F)F)CC1 [AST 487, 1-[4-[(4-ethylpiperazin-1-yl)methyl]-3-(trifluoromethyl)phenyl]-3-[4-[6-(methylamino)pyrimidin-4-yl]oxyphenyl]urea]
[4]
  RET autophosphorylation and activation of downstream effectors: inhibit RET autophosphorylation

## C[N+]1([O-])CCN(C2=Nc3cc(Cl)ccc3Nc3ccccc32)CC1 [CNO, Clozapine-N-oxide]
[5]; [11]
  GDNF expression in GAT: increased
  ILC2 function: increased
[5]; AAV(3D)
  interleukin-33 (Il33) expression: did not affect
[5]; [12]
  GDNF expression in GAT: reduced
  innate type 2 cytokines: reduced
[5]; AAV(4D)
  interleukin-33 (Il33) expression: did not affect

## CCN(CC)CCCC(C)Nc1cc(/C=C/c2ccccc2Cl)nc2cc(Cl)ccc12 (centres unmarked) [XIB4035, N(4)-(7-chloro-2-[(E)-2-(2-chloro-phenyl)-vinyl]-quinolin-4-yl)-N(1),N(1)-diethyl-pentane-1,4-diamine]
[6]
  RET autophosphorylation: induced RET autophosphorylation

## CC(C)(C)NCC(O)c1cc(Cl)c(N)c(Cl)c1 (centres unmarked) [clenbuterol]
[7]
  ILC2-derived cytokines in the GAT: increased
[3]
  expression of IL-33: unperturbed
  Gdnf expression in other mesenchymal counterparts, adipocytes and endothelial cells: unperturbed
  expression of IL-25: unperturbed
  Gdnf expression in PDGFRA+MSC: modulated
  Gdnf expression in the GAT: modulated
[8]
  MSC-derived GDNF: increased

B1: GDNF: glial cell-derived neurotrophic factor, a GFRα ligand that activates RET (protein, UniProt P39905 78-211, looked up)
Glial cell line-derived …: SPDKQMAVLPRRERNRQAAAANPENSRGKGRRGQRGKNRGCVLTAIHLNVTDLGLGYETKEELIFRYCSGSCDAAETTYDKILKNLSRNRRLVSDKVGQACCRPIAFDDDLSFLDDNLVYHILRKHSAKRCGCI
[9]
  Ucp1 expression: efficiently induced
[6]
  RET autophosphorylation: induced RET autophosphorylation
